# Assays:
# Escherichia coli [1] = assay: Antimicrobial activity against Escherichia coli TOP10 by solid agar dilution method; format: functional
# Pseudomonas aeruginosa [2] = assay: Antimicrobial activity against Pseudomonas aeruginosa 531 expressing beta-lactamase BEL-2 by solid agar dilution method; format: functional
# Escherichia coli [3] = assay: Antimicrobial activity against Escherichia coli TOP10 expressing recombinant beta-lactamase BEL-1 by solid agar dilution method; format: functional
# Pseudomonas aeruginosa [4] = assay: Antimicrobial activity against Pseudomonas aeruginosa 51170 expressing beta-lactamase BEL-1 by solid agar dilution method; format: functional
# Escherichia coli [5] = assay: Antimicrobial activity against Escherichia coli TOP10 expressing recombinant beta-lactamase BEL-2 by solid agar dilution method; format: functional
# Pseudomonas aeruginosa [6] = assay: Ratio of Km for Pseudomonas aeruginosa 51170 beta-lactamase BEL-1 to Km for Pseudomonas aeruginosa 531 beta-lactamase BEL-2
SMILES,MIC (Escherichia coli [1]) [µg/mL],MIC (Pseudomonas aeruginosa [2]) [µg/mL],MIC (Escherichia coli [3]) [µg/mL],MIC (Pseudomonas aeruginosa [4]) [µg/mL],MIC (Escherichia coli [5]) [µg/mL],Ratio (Pseudomonas aeruginosa [6])
CC1(C)S[C@@H]2[C@H](NC(=O)[C@H](N)c3ccc(O)cc3)C(=O)N2[C@H]1C(=O)O [AMOXICILLIN],4,> 512,> 512,> 512,> 512,–
CO/N=C(\C(=O)N[C@@H]1C(=O)N2C(C(=O)[O-])=C(C[n+]3cccc4c3CCC4)CS[C@H]12)c1csc(N)n1 [CEFPIROME],0.06,64,0.25,16,0.5,–
CO/N=C(\C(=O)N[C@@H]1C(=O)N2C(C(=O)O)=C(COC(C)=O)CS[C@H]12)c1csc(N)n1 [CEFOTAXIME],0.12,256,4,32,32,–
CC1(C)S[C@@H]2[C@H](NC(=O)[C@H](C(=O)O)c3ccsc3)C(=O)N2[C@H]1C(=O)O [TICARCILLIN],4,> 512,> 512,> 512,> 512,–
CC(=O)OCC1=C(C(=O)O)N2C(=O)[C@@H](NC(=O)Cc3cccs3)[C@H]2SC1 [CEPHALOTHIN],2,> 512,256,> 512,256,–
CC(C)(O/N=C(\C(=O)N[C@@H]1C(=O)N2C(C(=O)[O-])=C(C[n+]3ccccc3)CS[C@H]12)c1csc(N)n1)C(=O)O [CEFTAZIDIME],0.06,256,16,32,128,< 3
C[C@@H](O)[C@H]1C(=O)N2C(C(=O)O)=C(SCCNC=N)C[C@H]12 [IMIPENEM ANHYDROUS],–,1,–,–,–,–

# From ChEMBL document CHEMBL1212771, “BEL-2, an extended-spectrum beta-lactamase with increased activity toward expanded-spectrum cephalosporins in Pseudomonas aeruginosa” (Antimicrob Agents Chemother, 2010)
